Laboratory results as given in ChEMBL document CHEMBL1201862, “PubChem BioAssay data set” (2004).
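How tested: cells in 96-well plates exposed to compound for 48 hours at five concentrations. The concentration for 50% growth inhibition is given as GI50.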 The source made the active and inactive calls. No stated cut-off is given here; in the data, active = GI50 up to about 1.1 µM and inactive = higher.

Legend:
Experiment in all cases: growth of human tumour cells (NCI), 48 h
MCF7 = test system: MCF7
A498 = test system: A498
NCI-H23 = test system: NCI-H23
ACHN = test system: ACHN
SF-268 = test system: SF-268
A549 = test system: A549
HT-29 = test system: HT-29
SNB-75 = test system: SNB-75
M14 = test system: M14
OVCAR-8 = test system: OVCAR-8
SF-539 = test system: SF-539
UO-31 = test system: UO-31
MOLT-4 = test system: MOLT-4
786-0 = test system: 786-0
HOP-92 = test system: HOP-92
MDA-MB-231 = test system: MDA-MB-231
SW-620 = test system: SW-620
SF-295 = test system: SF-295
NCI-H522 = test system: NCI-H522
NCI-H226 = test system: NCI-H226

Measured: GI50

CCCn1c(=O)c(N2CCN(c3ccccc3)CC2)nc2sc3ccccc3c21
inactive: MCF7 > 100 µM | A498 > 100 µM | NCI-H23 > 100 µM | ACHN > 100 µM | SF-268 > 100 µM | A549 > 100 µM | HT-29 > 100 µM | SNB-75 > 100 µM | M14 > 100 µM | OVCAR-8 > 100 µM | SF-539 > 100 µM | UO-31 > 100 µM | MOLT-4 > 100 µM | 786-0 > 100 µM | HOP-92 > 100 µM | MDA-MB-231 > 100 µM | SW-620 > 100 µM | SF-295 > 100 µM | NCI-H522 > 100 µM

N#CCCN(CCCN(CCCN(C(=O)Nc1ccccc1)c1ccccc1)C(=O)Nc1ccccc1)C(=O)Nc1ccccc1
inactive: MCF7 > 8.75 µM | NCI-H226 31.4 µM | A498 > 8.75 µM | ACHN > 8.75 µM | SF-268 > 8.75 µM | A549 > 8.75 µM | HT-29 > 8.75 µM | SNB-75 > 8.75 µM | M14 > 8.75 µM | OVCAR-8 > 8.75 µM | SF-539 > 8.75 µM | UO-31 > 8.75 µM | MOLT-4 > 8.75 µM | 786-0 > 8.75 µM | HOP-92 20.2 µM | MDA-MB-231 > 8.75 µM | SW-620 > 8.75 µM | SF-295 > 8.75 µM

Cc1ccc(C(=O)O)c(/C=C2\Cc3cc(C)cc(C)c3C2=O)c1
inactive: MCF7 69.3 µM | NCI-H226 40.5 µM | A498 81.1 µM | ACHN 74 µM | SF-268 > 100 µM | A549 78.2 µM | HT-29 > 100 µM | SNB-75 63.5 µM | OVCAR-8 82.2 µM | SF-539 75.9 µM | UO-31 92.3 µM | MOLT-4 53.2 µM | 786-0 > 100 µM | MDA-MB-231 41.3 µM | SW-620 > 100 µM | SF-295 > 100 µM | NCI-H522 > 100 µM

Cn1cc[n+](-c2cc(=O)n(C)c(=O)[n-]2)c1
inactive: MCF7 93.5 µM | NCI-H226 91.8 µM | A498 > 100 µM | NCI-H23 > 100 µM | ACHN > 100 µM | SF-268 > 100 µM | A549 > 100 µM | HT-29 > 100 µM | M14 > 100 µM | SF-539 > 100 µM | UO-31 44.3 µM | MOLT-4 77.8 µM | 786-0 > 100 µM | HOP-92 > 100 µM | MDA-MB-231 > 100 µM | SW-620 > 100 µM

COc1cc(C=O)cc(/C=N/c2ccccn2)c1O
inactive: MCF7 52.1 µM | NCI-H226 4.84 µM | A498 9.64 µM | NCI-H23 > 100 µM | ACHN 2.34 µM | SF-268 3.37 µM | A549 32 µM | HT-29 11.5 µM | SNB-75 3.78 µM | M14 6.87 µM | OVCAR-8 2.78 µM | SF-539 3.01 µM | UO-31 3.34 µM | MOLT-4 24.5 µM | 786-0 7.36 µM | HOP-92 2.72 µM | MDA-MB-231 9.02 µM | SW-620 31.6 µM | SF-295 5.47 µM

CC1(C)[C@@H]2CC[C@]1(C)[C@H](OC(=O)/C=C/c1ccccc1)C2
inactive: MCF7 16.7 µM | NCI-H226 20.8 µM | A498 18.3 µM | NCI-H23 21.7 µM | ACHN 18 µM | SF-268 17.3 µM | A549 30.8 µM | HT-29 16.6 µM | SNB-75 16.2 µM | M14 29.9 µM | OVCAR-8 20.8 µM | SF-539 20.7 µM | UO-31 19.2 µM | 786-0 18.1 µM | MDA-MB-231 19.3 µM | SW-620 15.5 µM | SF-295 18 µM | NCI-H522 14.6 µM

C=CCCC(=O)C(=[N+]=[N-])C(=O)CCC(=O)c1ccccc1
inactive: MCF7 > 10 µM | NCI-H226 > 10 µM | A498 > 10 µM | NCI-H23 > 10 µM | ACHN > 10 µM | SF-268 > 10 µM | A549 > 10 µM | HT-29 > 10 µM | SNB-75 8.38 µM | M14 > 10 µM | OVCAR-8 > 10 µM | SF-539 > 10 µM | UO-31 > 10 µM | MOLT-4 > 10 µM | 786-0 > 10 µM | HOP-92 > 10 µM | MDA-MB-231 > 10 µM | SW-620 > 10 µM | SF-295 > 10 µM

CCCC(=O)C1=C(O)C(Cc2c(O)c(C)c(O)c(C(=O)CCC)c2O)=C(O)C(C)(C)C1=O
inactive: MCF7 21.9 µM | A498 46.8 µM | NCI-H23 15.8 µM | ACHN > 50 µM | SF-268 34.8 µM | A549 25.2 µM | HT-29 20.4 µM | SNB-75 29.4 µM | M14 > 50 µM | OVCAR-8 > 50 µM | UO-31 15.6 µM | MOLT-4 11 µM | 786-0 > 50 µM | HOP-92 10.2 µM | MDA-MB-231 > 50 µM | SW-620 13.9 µM | SF-295 16.9 µM

CC(=O)c1cc(CC2Cc3cc4c(cc3C2=O)CCC4)cc2c1CCC2 (centres undefined)
inactive: MCF7 30.8 µM | NCI-H226 44.9 µM | A498 84.7 µM | NCI-H23 15 µM | ACHN 92.7 µM | SF-268 83.9 µM | A549 29.8 µM | HT-29 48.2 µM | SNB-75 33.3 µM | M14 69.7 µM | OVCAR-8 46.8 µM | SF-539 70.5 µM | UO-31 49.5 µM | MOLT-4 18.5 µM | 786-0 80 µM | MDA-MB-231 29.7 µM | SW-620 49.5 µM | SF-295 20.4 µM | NCI-H522 36.9 µM

O=c1cc(-c2ccncc2)[nH]c2cc3c(cc12)OCO3
inactive: MCF7 > 100 µM | NCI-H226 > 100 µM | A498 > 100 µM | NCI-H23 > 100 µM | ACHN > 100 µM | SF-268 > 100 µM | A549 > 100 µM | HT-29 > 100 µM | SNB-75 49.7 µM | M14 > 100 µM | OVCAR-8 > 100 µM | SF-539 > 100 µM | UO-31 > 100 µM | MOLT-4 > 100 µM | 786-0 64.6 µM | HOP-92 > 100 µM | MDA-MB-231 > 100 µM | SW-620 > 100 µM | SF-295 > 100 µM

O=C1C2=Cc3ccccc3OC2(O)Oc2cc(O)cc(O)c21 (centres undefined)
inactive: MCF7 > 100 µM | NCI-H226 > 100 µM | A498 > 100 µM | NCI-H23 59.2 µM | ACHN > 100 µM | SF-268 > 100 µM | A549 > 100 µM | HT-29 > 100 µM | SNB-75 > 100 µM | M14 > 100 µM | OVCAR-8 > 100 µM | SF-539 > 100 µM | MOLT-4 > 100 µM | 786-0 > 100 µM | HOP-92 > 100 µM | MDA-MB-231 > 100 µM | SW-620 > 100 µM | SF-295 > 100 µM
